Test in all cases: relative viability (nuclei count vs DMSO), 5 days (fraction); higher = more cells survive
Compound in the experiment “RAF265 + Linsitinib”: Cn1c(Nc2ccc(C(F)(F)F)cc2)nc2cc(Oc3ccnc(-c4ncc(C(F)(F)F)[nH]4)c3)ccc21 [RAF265] + C[C@]1(O)C[C@@H](c2nc(-c3ccc4ccc(-c5ccccc5)nc4c3)c3c(N)nccn32)C1 [Linsitinib] (partner 1 µM)
The essentials:
(§1)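 The day after seeding in 1536-well plates, lung cancer cell lines were treated by pin tool with a single drug, or with a fixed anchor-drug dose together with five library-drug doses (not always all listed) in √10 steps. After 5 days, a combined fix-and-stain solution (final 0.05% Triton X-100, 1% formaldehyde, 1 ug/ml Hoechst) was added. Nuclei counted on 4× images gave relative viability as treated counts over vehicle counts, reported as the median of duplicate plates.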

Compound in the experiment “IPA-3 + Vorinostat”: C1=CC=C2C(=C1)C=CC(=C2SSC3=C(C=CC4=CC=CC=C43)O)O [IPA-3] + O=C(CCCCCCC(=O)Nc1ccccc1)NO [Vorinostat] (partner 1 µM)
The essentials:
as §1

Compound in the experiment “IPA-3 + Trametinib”: C1=CC=C2C(=C1)C=CC(=C2SSC3=C(C=CC4=CC=CC=C43)O)O [IPA-3] + CC(=O)Nc1cccc(-n2c(=O)n(C3CC3)c(=O)c3c(Nc4ccc(I)cc4F)n(C)c(=O)c(C)c32)c1 [Trametinib] (partner 0.02 µM)
In short, it runs like this:
as §1

Compound in the experiment “IPA-3 + Foretinib”: C1=CC=C2C(=C1)C=CC(=C2SSC3=C(C=CC4=CC=CC=C43)O)O [IPA-3] + COc1cc2c(Oc3ccc(NC(=O)C4(C(=O)Nc5ccc(F)cc5)CC4)cc3F)ccnc2cc1OCCCN1CCOCC1 [Foretinib] (partner 0.25 µM)
In short, it runs like this: as §1

In the case of UMC-11, the relative viability with RAF265 + Linsitinib (first compound 0.01 µM) is 1; with RAF265 + Linsitinib (first compound 0.03162 µM), 0.993; in the experiment with RAF265 + Linsitinib (first compound 0.1 µM), 0.953; with RAF265 + Linsitinib (first compound 0.3162 µM), 0.986; with RAF265 + Linsitinib (first compound 1 µM), 0.973; in the experiment with IPA-3 + Vorinostat (first compound 0.2 µM), 0.395. The relative viability was 0.425 with IPA-3 + Vorinostat (first compound 0.6325 µM); 0.389 with IPA-3 + Vorinostat (first compound 2 µM); 0.394 in the experiment with IPA-3 + Vorinostat (first compound 6.325 µM); 0.409 in the experiment with IPA-3 + Vorinostat (first compound 20 µM); 0.804 with IPA-3 + Trametinib (first compound 0.2 µM); 0.666 in the experiment with IPA-3 + Trametinib (first compound 0.6325 µM). The relative viability with IPA-3 + Trametinib (first compound 2 µM) came to 0.677; with IPA-3 + Trametinib (first compound 6.325 µM), 0.6; with IPA-3 + Trametinib (first compound 20 µM), 0.794; with IPA-3 + Foretinib (first compound 0.2 µM), 1.11; with IPA-3 + Foretinib (first compound 0.6325 µM) it was 0.983; with IPA-3 + Foretinib (first compound 2 µM), 1.08. The results for the relative viability in the experiment with IPA-3 + Foretinib (first compound 6.325 µM) and in the experiment with IPA-3 + Foretinib (first compound 20 µM) were 1 and 1.25, respectively.

These data come from the supplement of paper PMC10307832.
